This is an account of results in patent publication US20110045076A1, “LINEAR ORDER RELEASE POLYMER” (priority 2008, published 2011).

Common to all, as to assay type: physicochemical
The nature of series [1]: In vitro release of AMP from PEG2000-containing PU rods. Conditions: pH 4.2 acetate buffer; for release profile: 37° C. As for the experimental part: Incorporation of AMP in PU matrix: Homogenous distribution of AMP and PEG2000 in the PU matrix was achieved by solvent casting. AMP (500 mg), PEG2000 (500 mg (5% w/w), 1000 mg (10% w/w) and 1500 mg (15% w/w)) and PU (added to make the total weight of PEG+AMP+PU mixture to 10 g) were dissolved in 75:25 mixture of dichloromethane and tetrahydrofuran. About 75% of the solvent was removed under reduced pressure and the viscous solution of PU, AMP and PEG2000 was poured into a silanized crystallization flask which was further dried under air at a flow rate of 4 L/min for 2-3 days. The […] incorporated PU films thus obtained were cut into small pieces and further dried under high vacuum until constant weight was achieved.
Extrusion of PEG2000 and AMP loaded solid cross-sectional PU: Extrusion was conducted at 165-175° C. into solid cross-sectional rods using a lab scale extruder (CSI Max Mixing Extruder CS-194A, Custom Scientific Instrument Inc., Easton, Pa.). The extruded and molten polymer output from the extruder was immediately fed to an aluminum mold (4.3 mm diameter, 25 cm length, previously spray coated with mold release agent) maintained at 120° C. The mold was cooled to below 80° C. and opened carefully without stretching the PU rod. The release profile of AMP was measured from PU rods using pH 4.2 25 mM acetate buffer (osmolarity adjusted to 310 mOsm/kg using NaCl, 0.02% sodium azide) at 37° C. and 60 rpm. About 2 cm length segments were cut from the solid cross-sectional AMP loaded PU rods. The dimensions (length and diameter) and weight of each segment were recorded. The sink was replaced with fresh buffer every 24±0.5 h for 10 days. HPLC analyses were performed and the cumulative release was calculated by integrating the area under the curve using Kaleidagraph software (Synergy Software, Reading, Pa.). The release study for each loading was performed on triplicate samples. […] A burst release is obtained in all PEG-PU compositions that is proportional to the PEG concentration.

A short description of series [2]: Release of Tenofovir from Tecoflex EG-93A matrices with PEG2000 with and without salts. The conditions noted are these: 5% w/w PEG. As for the experimental part:
Incorporation of Tenofovir and PEG2000 and salts in EG-93A matrices: Homogenous distribution of Tenofovir, PEG2000 with and without salts in Tecoflex EG-93A_matrices were achieved by solvent casting. Tenofovir (250 mg), PEG2000 (250 mg (5% w/w)) and salts (NaCl=50 mg (1% w/w) or 125 mg (2.5% w/w) or CaCl2=125 mg (2.5% w/w)) were dispersed in 75:25 mixture of dichloromethane and tetrahydrofuran followed by sonication for 30 minutes. About 75% of the solvent was removed under reduced pressure and the viscous solution was poured into a silanized crystallization flask which was further dried under air at a flow rate of 4 L/min for 2-3 days. The Tenofovir incorporated polymer films thus obtained were cut into small pieces and further dried under high vacuum until constant weight was achieved. About 1.2 g of the polymer film pieces were taken in a 20 mL scintillation vial which was incubated at 210° C. for about 5-6 minutes to allow the polymer pieces to melt and fuse to form a continuous film in the bottom of the vial. Then 5 mL of sink (25 mM pH 4.2 buffer, osmolarity adjusted to 310 mOsm/kg with NaCl, and 0.02% sodium azide) was added. The sink was replaced with fresh buffer every 24±0.5 h for 15 days. HPLC analyses were performed and the cumulative release was calculated by integrating the area under the curve using Kaleidagraph software (Synergy Software, Reading, Pa.). […]

Series [3] can be described thus: Release of Tenofovir from Tecoflex EG-80A and EG-85A small rings with and without PEG2000. Conditions: Tecoflex EG-80A and EG-85A matrices, 50 mg/g, 5% w/w PEG, pH 4.2 acetate buffer, 15 days. The protocol:
Incorporation of Tenofovir and PEG2000 in Tecoflex EG-80A and EG-85A matrices: Homogenous distribution of Tenofovir and PEG2000 in Tecoflex EG-80A or EG-85A_matrices were achieved by solvent casting. Tenofovir (500 mg) with or without PEG2000 (500 mg) were dissolved in 75:25 mixture of dichloromethane and tetrahydrofuran. About 75% of the solvent was removed under reduced pressure and the viscous solution was poured into a silanized crystallization flask which was further dried under air at a flow rate of 4 L/min for 2-3 days. The Tenofovir incorporated polymer films thus obtained were cut into small pieces and further dried under high vacuum until constant weight was achieved.
Solid cross-sectional rods were obtained by extrusion of polymer films obtained in the above step at 155-165° C. using a lab scale extruder (CSI Max Mixing Extruder CS-194A, Custom Scientific Instrument Inc., Easton, Pa.). Small rings were fabricated by joining the ends of rods of approximately 6 cm in length. The release profile of Tenofovir was measured from Tenofovir loaded small rings using pH 4.2 25 mM acetate buffer (osmolarity adjusted to 310 mOsm/kg using NaCl, 0.02% sodium azide) at 37° C. and 60 rpm. […] HPLC analyses were performed and the cumulative release was calculated by integrating the area under the curve using Kaleidagraph software (Synergy Software, Reading, Pa.). […]

With `Nc1ncnc2c1ncn2[C@@H]1O[C@H](COP(=O)(O)O)[C@@H](O)[C@H]1O` [AMP, Adenosine Monophosphate], the release profile entry in series [1] (5% w/w PEG in PU) was “zero order”; in series [1] (10% w/w PEG in PU), “diffusion limited”; in series [1] (15% w/w PEG in PU), “diffusion limited”. Moreover, the “effect of PEG incorporation on release” value in series [1] (PEG-PU rods vs PU) is “increases the overall amount of drug released per day”.

For `C[C@H](Cn1cnc2c(N)ncnc21)OCP(=O)(O)O` [Tenofovir, ({[(2R)-1-(6-amino-9H-purin-9-yl)propan-2-yl]oxy}methyl)phosphonic acid], the release profile result in series [2] (2.5 w/w CaCl2) and in series [2] (2.5 w/w NaCl) was “nearly zero-order release” each time. Moreover, in series [3], the “effect of PEG incorporation on release” value is recorded as “increases the overall amount of drug released per day”.
